# Assay results from PubChem BioAssay AID1963450 (Molecular Pharmacology Branch, DTP, NCI, 2024).
# Tested on: 556581-035-R-J1-PDC complex spheroid growth
# Experiment: Anticancer human tumor 556581-035-R-J1-PDC patient-derived ovarian carcinoma cell line growth inhibition [Asc]
# Conditions: for IC50: curve of first compound; for viability, T/C: stronger effect = lower value
# Protocol: Multicellular complex tumor spheroid response to apoptosis pathway targeting inhibitors Alrizomadlin, Pelcitoclax, and Dasminapant in combination with a variety of drugs and investigational agents in selected tumor cell lines
# The MDM2 inhibitor alrizomadlin, the Bcl-2/Bcl-xL inhibitor pelcitoclax, and the IAPs inhibitor dasminapant were evaluated both individually and in combination with standard of care and investigational anticancer small molecules within a complex spheroid model of solid tumors. . Complex spheroids include a stromal component modeled by human endothelial cells (HUVEC) and fibroblasts modeled by human mesenchymal stem cells (MSCs). The concentration ranges selected for each drug and investigational agent were based upon clinically achievable concentrations if the clinical Cmax of the agent was known.
# Compounds. The drugs and investigational agents: alrizomadlin (APG-115; NSC831270), pelcitoclax (APG-1252; NSC835773), dasminapant (APG-1387;NSC834197), TAK-243 (NSC785004), copanlisib (NSC809693), olaparib (NSC753686), talazoparib (NSC767125), cobimetinib (NSC 768068), eltanexor (KPT-8602, NSC 794443), abemaciclib (NSC 768073), sotorasib (NSC818433), adagrasib (NSC 831453), MRTX-1133 (NSC 836407), Iadademestat (ORY1001, NSC 806812), and RMC-4630 (NSC839698), were obtained from the NCI Developmental Therapeutics Program Chemical Repository. The FDA-approved anticancer drug set is available from the Developmental Therapeutics Program at https://dtp.cancer.gov/organization/dscb/obtaining/available plates.htm. […] The stock solutions were prepared in dimethyl sulfoxide (DMSO, Sigma-Aldrich, St. Louis, MO, cat. D2650) at 800-fold the tested concentration and stored at -70 degrees C prior to their use. All drugs and investigational agents were tested over a range starting from a high concentration at or near the clinical Cmax and decreasing in half-log increments. If the clinical Cmax for an agent had not been determined, the highest concentration tested was 10 microM.
# The patient-derived cancer (PDC) cell lines include five colon adenocarcinomas: 186277-243-T-J2-PDC, 616215-338-R-J1-PDC, 439559-082-T-J2-PDC, 463943-066-T-J2-PDC, and 519858-162-T-J1-PDC; three pancreatic carcinomas: 323965-272-R-J2-PDC, 521955-158-R6-J3-PDC, and 521955-158-R2-J5-PDC; two uterine sarcomas: 327498-152-R-J2-PDC and 993429-296-R-J1-PDC; two rhabdomyosarcomas: 755483-174-R-J1-PDC and 772245-204-R-J1-PDC; two soft tissue sarcomas: 126254-015-R-J1-PDC and 494315-158-R-J1-PDC; two malignant fibrous histiocytomas: 317291-083-R-J1-PDC and 596521-263-R-J1-PDC; two breast carcinomas: 171881-019-R-J1-PDC and 885512-296-R-J2-PDC; and one ovarian carcinoma: 6556581-035-R-J-PDC were obtained from the NCI PDMR, (https://pdmr.cancer.gov). The established cell lines HSSY-2 synovial sarcoma (RRID:CVCL 8719), SYO-1 synovial sarcoma (RRID:CVCL_7146), MPNST malignant peripheral neural sheath tumor were obtained from the Sloan Kettering Institute. The following established cell lines were purchased from the American Type Culture Collection (ATCC, Manassas, VA), Sor the received from the NCI repository:, PANC-1 pancreatic carcinoma (CRL-1469, RRID:CVCL_0480), OVCAR-5 ovarian carcinoma (RRID:CVCL_1628), OVCAR-8 ovarian carcinoma (RRID:CVCL_1629), , MCF-7 breast carcinoma (CRL-12584, RRID:CVCL_0031), MDA-MB-231 breast carcinoma (CRL-12532, RRID:CVCL_0062), NCI-H1876 small cell lung carcinoma (CRL-5902, RRID:CVCL_1503), NCI-H510A small cell lung carcinoma (HTB-184, RRID:CVCL_1565), NCI-H1417 (CRL-5869, RRID:CVCL_1469), and NCI-H196 small cell lung carcinoma (CRL-5823, RRID:CVCL_1509). Dr. Peter Houghton (Greehey Children's Cancer Research Institute, University of Texas Health Science Center, San Antonio, TX) provided Rh-18 rhabdomyosarcoma (RRID:CVCL_1659). Pooled donor human umbilical vein endothelial cells (HUVEC, Lonza, cat. CC-2519) and human mesenchymal stem cells (hMSC, Lonza, cat. PT-2501) were purchased from Lonza (Walkersville, MD).
# Cell Culture. […]
# [1] = second compound 0.01 µM, first compound 0.0316 µM
# [2] = second compound 0.01 µM, first compound 0.1 µM
# [3] = second compound 0.01 µM, first compound 0.316 µM
# [4] = second compound 0.01 µM, first compound 1 µM
# [5] = second compound 0.01 µM, first compound 3.16 µM
# [6] = second compound 0.01 µM, first compound 10 µM
# [7] = second compound 0.0316 µM, first compound 0.0316 µM
# [8] = second compound 0.0316 µM, first compound 0.1 µM
# [9] = second compound 0.0316 µM, first compound 0.316 µM
# [10] = second compound 0.0316 µM, first compound 1 µM
# [11] = second compound 0.0316 µM, first compound 3.16 µM
# [12] = second compound 0.0316 µM, first compound 10 µM
# [13] = second compound 0.1 µM, first compound 0.0316 µM
# [14] = second compound 0.1 µM, first compound 0.1 µM
# [15] = second compound 0.1 µM, first compound 0.316 µM
# [16] = second compound 0.1 µM, first compound 1 µM
# [17] = second compound 0.1 µM, first compound 3.16 µM
# [18] = second compound 0.1 µM, first compound 10 µM
# [19] = second compound 0.316 µM, first compound 0.0316 µM
# [20] = second compound 0.316 µM, first compound 0.1 µM
# [21] = second compound 0.316 µM, first compound 0.316 µM
# [22] = second compound 0.316 µM, first compound 1 µM
# [23] = second compound 0.316 µM, first compound 3.16 µM
# [24] = second compound 0.316 µM, first compound 10 µM
# [25] = second compound 1 µM, first compound 0.0316 µM
# [26] = second compound 1 µM, first compound 0.1 µM
# [27] = second compound 1 µM, first compound 0.316 µM
# [28] = second compound 1 µM, first compound 1 µM
# [29] = second compound 1 µM, first compound 3.16 µM
# [30] = second compound 1 µM, first compound 10 µM
# 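Note: spheroids exposed to agents for 7 days before viability read.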
compound,measurement,setting,value
C=CC(=O)N1CCN(c2nc(=O)n(-c3c(C)ccnc3C(C)C)c3nc(-c4c(O)cccc4F)c(F)cc23)C(C)C1 (configuration not stated) + CNC(C)C(=O)NC1CN(S(=O)(=O)c2cccc(S(=O)(=O)N3CCC4CCC(C(=O)NC(c5ccccc5)c5ccccc5)N4C(=O)C(NC(=O)C(C)NC)C3)c2)CCC2CCC(C(=O)NC(c3ccccc3)c3ccccc3)N2C1=O,IC50,second compound 0.01 µM,> 10 µM
same,IC50,second compound 0.0316 µM,> 10 µM
same,IC50,second compound 0.1 µM,> 10 µM
same,IC50,second compound 0.316 µM,> 10 µM
same,IC50,second compound 1 µM,> 10 µM
same,"viability, T/C",[1],88.6%
same,"viability, T/C",[2],90%
same,"viability, T/C",[3],82.4%
same,"viability, T/C",[4],101%
same,"viability, T/C",[5],103%
same,"viability, T/C",[6],86.5%
same,"viability, T/C",[7],95%
same,"viability, T/C",[8],98%
same,"viability, T/C",[9],83%
same,"viability, T/C",[10],91.5%
same,"viability, T/C",[11],94.3%
same,"viability, T/C",[12],78.8%
same,"viability, T/C",[13],98.3%
same,"viability, T/C",[14],81.5%
same,"viability, T/C",[15],89.1%
same,"viability, T/C",[16],95.3%
same,"viability, T/C",[17],91.3%
same,"viability, T/C",[18],100%
same,"viability, T/C",[19],92.3%
same,"viability, T/C",[20],85.2%
same,"viability, T/C",[21],94.2%
same,"viability, T/C",[22],79.8%
same,"viability, T/C",[23],78.9%
same,"viability, T/C",[24],81.4%
same,"viability, T/C",[25],79.5%
same,"viability, T/C",[26],71.5%
same,"viability, T/C",[27],86.3%
same,"viability, T/C",[28],74.8%
same,"viability, T/C",[29],87.2%
same,"viability, T/C",[30],66.5%
C#Cc1c(F)ccc2cc(O)cc(-c3ncc4c(N5CC6CCC(C5)N6)nc(OCC56CCCN5CC(F)C6)nc4c3F)c12 (configuration not stated) + CNC(C)C(=O)NC1CN(S(=O)(=O)c2cccc(S(=O)(=O)N3CCC4CCC(C(=O)NC(c5ccccc5)c5ccccc5)N4C(=O)C(NC(=O)C(C)NC)C3)c2)CCC2CCC(C(=O)NC(c3ccccc3)c3ccccc3)N2C1=O,IC50,second compound 0.00316 µM,> 10 µM
same,IC50,second compound 0.01 µM,> 10 µM
same,IC50,second compound 0.0316 µM,> 10 µM
same,IC50,second compound 0.1 µM,> 10 µM
same,IC50,second compound 0.316 µM,6.87 µM
same,IC50,second compound 1 µM,5.29 µM
same,"viability, T/C","second compound 0.00316 µM, first compound 0.0316 µM",101%
same,"viability, T/C","second compound 0.00316 µM, first compound 0.1 µM",103%
same,"viability, T/C","second compound 0.00316 µM, first compound 0.316 µM",103%
same,"viability, T/C","second compound 0.00316 µM, first compound 1 µM",99.6%
same,"viability, T/C","second compound 0.00316 µM, first compound 3.16 µM",98%
same,"viability, T/C","second compound 0.00316 µM, first compound 10 µM",86.8%
same,"viability, T/C",[1],105%
same,"viability, T/C",[2],96.6%
same,"viability, T/C",[3],100%
same,"viability, T/C",[4],107%
same,"viability, T/C",[5],87.6%
same,"viability, T/C",[6],71%
same,"viability, T/C",[7],96.7%
same,"viability, T/C",[8],95.9%
same,"viability, T/C",[9],88.5%
same,"viability, T/C",[10],87.7%
same,"viability, T/C",[11],87%
same,"viability, T/C",[12],60.5%
same,"viability, T/C",[13],92%
same,"viability, T/C",[14],88.8%
same,"viability, T/C",[15],76.8%
same,"viability, T/C",[16],78%
same,"viability, T/C",[17],77.9%
same,"viability, T/C",[18],62%
same,"viability, T/C",[19],82.6%
same,"viability, T/C",[20],65.4%
same,"viability, T/C",[21],75.3%
same,"viability, T/C",[22],66.4%
same,"viability, T/C",[23],62.8%
same,"viability, T/C",[24],44%
same,"viability, T/C",[25],65.2%
same,"viability, T/C",[26],64.3%
same,"viability, T/C",[27],65.6%
same,"viability, T/C",[28],75.4%
same,"viability, T/C",[29],57.9%
same,"viability, T/C",[30],36.3%
